From PubChem BioAssay AID1259407 (Chemical Carcinogenesis Research Information System (CCRIS), 2018)
Active and inactive are the calls of the source. How the calls were made is not given here.

System: CCRIS mutagenicity, Ames/micronucleus/aberration tests
Test: CCRIS mutagenicity studies
[1] = Test System: AMES SALMONELLA TYPHIMURIUM, Strain/Indicator: TA98, Metabolic Activation: NONE, Method: STANDARD PLATE
[2] = Test System: AMES SALMONELLA TYPHIMURIUM, Strain/Indicator: TA98, Metabolic Activation: RAT, LIVER, S-9, AROCLOR 1254, Method: STANDARD PLATE
[3] = Test System: AMES SALMONELLA TYPHIMURIUM, Strain/Indicator: TA100, Metabolic Activation: NONE, Method: STANDARD PLATE
[4] = Test System: AMES SALMONELLA TYPHIMURIUM, Strain/Indicator: TA100, Metabolic Activation: RAT, LIVER, S-9, AROCLOR 1254, Method: STANDARD PLATE
[5] = Test System: AMES SALMONELLA TYPHIMURIUM, Strain/Indicator: TA1535, Metabolic Activation: NONE, Method: STANDARD PLATE
[6] = Test System: AMES SALMONELLA TYPHIMURIUM, Strain/Indicator: TA1535, Metabolic Activation: RAT, LIVER, S-9, AROCLOR 1254, Method: STANDARD PLATE
[7] = Test System: AMES SALMONELLA TYPHIMURIUM, Strain/Indicator: TA1537, Metabolic Activation: RAT, LIVER, S-9, AROCLOR 1254, Method: STANDARD PLATE
[8] = Test System: AMES SALMONELLA TYPHIMURIUM, Strain/Indicator: TA1538, Metabolic Activation: NONE, Method: STANDARD PLATE
[9] = Test System: AMES SALMONELLA TYPHIMURIUM, Strain/Indicator: TA1538, Metabolic Activation: RAT, LIVER, S-9, AROCLOR 1254, Method: STANDARD PLATE
[10] = Test System: AMES SALMONELLA TYPHIMURIUM, Strain/Indicator: TA1537, Metabolic Activation: NONE, Method: STANDARD PLATE

## NC(=Nc1ccccc1)Nc1ccccc1
Test System: AMES SALMONELLA TYPHIMURIUM, Strain/Indicator: TA98, Metabolic Activation: HAMSTER, LIVER, S-9, AROCLOR 1254, Method: STANDARD PLATE
  mutagenic call: active; positive
Test System: AMES SALMONELLA TYPHIMURIUM, Strain/Indicator: TA98, Metabolic Activation: NONE, Method: PREINCUBATION
  mutagenic call: inactive; negative
[1]
  mutagenic call: inactive; negative
Test System: AMES SALMONELLA TYPHIMURIUM, Strain/Indicator: TA98, Metabolic Activation: RAT LIVER S-9, PHENOBARBITAL AND BETA-NAPHTHOFLAVONE, Method: PREINCUBATION
  mutagenic call: inactive; negative
[2]
  mutagenic call: inactive; negative
Test System: AMES SALMONELLA TYPHIMURIUM, Strain/Indicator: TA98, Metabolic Activation: S-9, Method: STANDARD PLATE
  mutagenic call: inactive; negative
Test System: AMES SALMONELLA TYPHIMURIUM, Strain/Indicator: TA100, Metabolic Activation: HAMSTER, LIVER, S-9, AROCLOR 1254, Method: STANDARD PLATE
  mutagenic call: active; positive
Test System: AMES SALMONELLA TYPHIMURIUM, Strain/Indicator: TA100, Metabolic Activation: NONE, Method: PREINCUBATION
  mutagenic call: inactive; negative
[3]
  mutagenic call: inactive; negative
Test System: AMES SALMONELLA TYPHIMURIUM, Strain/Indicator: TA100, Metabolic Activation: RAT LIVER S-9, PHENOBARBITAL AND BETA-NAPHTHOFLAVONE, Method: PREINCUBATION
  mutagenic call: inactive; negative
[4]
  mutagenic call: inactive; negative
Test System: AMES SALMONELLA TYPHIMURIUM, Strain/Indicator: TA100, Metabolic Activation: S-9, Method: STANDARD PLATE
  mutagenic call: inactive; negative
Test System: AMES SALMONELLA TYPHIMURIUM, Strain/Indicator: TA1535, Metabolic Activation: HAMSTER, LIVER, S-9, AROCLOR 1254, Method: STANDARD PLATE
  mutagenic call: inactive; negative
Test System: AMES SALMONELLA TYPHIMURIUM, Strain/Indicator: TA1535, Metabolic Activation: NONE, Method: PREINCUBATION
  mutagenic call: inactive; negative
[5]
  mutagenic call: inactive; negative
Test System: AMES SALMONELLA TYPHIMURIUM, Strain/Indicator: TA1535, Metabolic Activation: RAT LIVER S-9, PHENOBARBITAL AND BETA-NAPHTHOFLAVONE, Method: PREINCUBATION
  mutagenic call: inactive; negative
[6]
  mutagenic call: inactive; negative
Test System: AMES SALMONELLA TYPHIMURIUM, Strain/Indicator: TA1537, Metabolic Activation: HAMSTER, LIVER, S-9, AROCLOR 1254, Method: STANDARD PLATE
  mutagenic call: inactive; negative
Test System: AMES SALMONELLA TYPHIMURIUM, Strain/Indicator: TA1537, Metabolic Activation: NONE, Method: PREINCUBATION
  mutagenic call: inactive; negative
Test System: AMES SALMONELLA TYPHIMURIUM, Strain/Indicator: TA1537, Metabolic Activation: RAT LIVER S-9, PHENOBARBITAL AND BETA-NAPHTHOFLAVONE, Method: PREINCUBATION
  mutagenic call: inactive; negative
[7]
  mutagenic call: inactive; negative
Test System: AMES SALMONELLA TYPHIMURIUM, Strain/Indicator: TA1538, Metabolic Activation: HAMSTER, LIVER, S-9, AROCLOR 1254, Method: STANDARD PLATE
  mutagenic call: inactive; negative
Test System: AMES SALMONELLA TYPHIMURIUM, Strain/Indicator: TA1538, Metabolic Activation: NONE, Method: PREINCUBATION
  mutagenic call: inactive; negative
[8]
  mutagenic call: inactive; negative
Test System: AMES SALMONELLA TYPHIMURIUM, Strain/Indicator: TA1538, Metabolic Activation: RAT LIVER S-9, PHENOBARBITAL AND BETA-NAPHTHOFLAVONE, Method: PREINCUBATION
  mutagenic call: inactive; negative
[9]
  mutagenic call: inactive; negative
Test System: E.COLI, Strain/Indicator: WP2UVRA, Metabolic Activation: NONE, Method: PREINCUBATION
  mutagenic call: inactive; negative
Test System: E.COLI, Strain/Indicator: WP2UVRA, Metabolic Activation: RAT LIVER S-9, PHENOBARBITAL AND BETA-NAPHTHOFLAVONE, Method: PREINCUBATION
  mutagenic call: inactive; negative
Test System: MOUSE LYMPHOMA, Strain/Indicator: L5178Y (TK+/TK-), Metabolic Activation: NONE, Method: SUSPENSION/PLATE
  mutagenic call: inactive; negative. reevaluation of results: negative
Test System: MOUSE LYMPHOMA, Strain/Indicator: L5178Y (TK+/TK-), Metabolic Activation: RAT, LIVER, S-9, AROCLOR 1254, Method: SUSPENSION/PLATE
  mutagenic call: inactive; negative. reevaluation of results: inconclusive

## Cc1ccccc1-c1ccc(N)cc1
[1]
  mutagenic call: inactive; negative
[2]
  mutagenic call: active; positive
[3]
  mutagenic call: inactive; negative
[4]
  mutagenic call: active; positive

## Nc1ccc2c(c1)[nH]c1ccccc12
[1]
  mutagenic call: active; positive
Test System: AMES SALMONELLA TYPHIMURIUM, Strain/Indicator: TA98, Metabolic Activation: RAT, LIVER, S-9, PHENOBARBITAL, Method: STANDARD PLATE
  mutagenic call: active; positive
[3]
  mutagenic call: inactive; negative
Test System: AMES SALMONELLA TYPHIMURIUM, Strain/Indicator: TA100, Metabolic Activation: RAT, LIVER, S-9, PHENOBARBITAL, Method: STANDARD PLATE
  mutagenic call: active; positive
[10]
  mutagenic call: inactive; negative
[8]
  mutagenic call: active; positive
Test System: AMES SALMONELLA TYPHIMURIUM, Strain/Indicator: TA1538, Metabolic Activation: RAT, LIVER, S-9, PHENOBARBITAL, Method: STANDARD PLATE
  mutagenic call: active; positive
Test System: AMES SALMONELLA TYPHIMURIUM, Strain/Indicator: TA1977, Metabolic Activation: NONE, Method: STANDARD PLATE
  mutagenic call: inactive; negative
Test System: AMES SALMONELLA TYPHIMURIUM, Strain/Indicator: TA1977, Metabolic Activation: RAT, LIVER, S-9, PHENOBARBITAL, Method: STANDARD PLATE
  mutagenic call: inactive; negative

## [N-]=[N+]=NCC(O)Cn1cnc2c(N)ncnc21 (stereo unspecified)
[3]
  mutagenic call: active; positive

## CCCCC(CC)COC(=O)c1ccc(C(=O)O)cc1 (stereo unspecified)
[1]
  mutagenic call: inactive; negative
[2]
  mutagenic call: inactive; negative
[3]
  mutagenic call: inactive; negative
[4]
  mutagenic call: inactive; negative
[5]
  mutagenic call: inactive; negative
[6]
  mutagenic call: inactive; negative
[10]
  mutagenic call: inactive; negative
[7]
  mutagenic call: inactive; negative
[8]
  mutagenic call: inactive; negative
[9]
  mutagenic call: inactive; negative

## NC(Cc1ccc(Cl)cc1)C(=O)O (stereo unspecified)
Test System: AMES SALMONELLA TYPHIMURIUM, Strain/Indicator: TA98, Metabolic Activation: NONE
  mutagenic call: inactive; negative
Test System: AMES SALMONELLA TYPHIMURIUM, Strain/Indicator: TA100, Metabolic Activation: NONE
  mutagenic call: inactive; negative
Test System: AMES SALMONELLA TYPHIMURIUM, Strain/Indicator: TA1535, Metabolic Activation: NONE
  mutagenic call: inactive; negative
Test System: AMES SALMONELLA TYPHIMURIUM, Strain/Indicator: TA1537, Metabolic Activation: NONE
  mutagenic call: inactive; negative
Test System: B. SUBTILIS, Strain/Indicator: BD190 REC, Metabolic Activation: NONE, Method: SPOT TEST
  mutagenic call: inactive; negative
Test System: E.COLI, Strain/Indicator: WP6 POLA, Metabolic Activation: NONE, Method: SPOT TEST
  mutagenic call: inactive; negative

## c1ccc2c(c1)[nH]c1cnccc12
Test System: AMES SALMONELLA TYPHIMURIUM, Strain/Indicator: TA98, Metabolic Activation: RAT, LIVER, S-9, AROCLOR 1254, Method: PREINCUBATION
  mutagenic call: inactive; negative
